pIC50: −log10 of the molar value. Structures can show the parent of a compound that is named as a salt.
Key:
[1] = biological target: p110α/p85 (Homo sapiens, UniProt P42336); experiment: Reversible inhibition of isolated enzyme, lipid kinase assay; format: biochemical; conditions: recombinant enzyme, 100 μM ATP, 1 hr, average of two experiments
Experimental: Compounds were evaluated for their ability to inhibit Class I PI 3-kinase enzymes p110δ/p85, p110α/p85, and p110β/p85. Reaction mixtures comprising 0.1 μg of a recombinant enzyme, 10 μg of L-α-phosphatidylinositol, and 2× Lipid Kinase Buffer (40 mM Tris-HCl, pH 7.4, 200 mM NaCl, 1 mM EDTA), which contains either DMSO only as a control or the test compound in DMSO (the final DMSO concentration is 1%), were activated by the addition of an ATP mix (5 mM MgCl2, 100 μM ATP, and 0.1 μL [γ^33P]ATP). Reactions were incubated at room temperature for 1 hr, and then stopped by the addition of 1M HCl. The lipids were then extracted using a two step procedure. Firstly, 200 μL of chloroform/methanol (1:1) was added, the biphasic reactions mixed and centrifuged briefly, and the inorganic phase was removed and discarded. Following this, 80 μL of methanol:HCl (1:1) was added and the same procedure followed. The organic phase (70 μL) was then transferred to a clean 1.6 mL tube and the reactions were dried using a Speedvac, with no heating, for 30 min. The reactions were spotted onto TLC plates (Merck Ltd) and developed for 1 hr in propanol-1:2 M acetic acid (13:7). The TLC plates were then dried at room temperature and quantified using a phosphorimager (StormImager, Amersham). Nine compound concentrations were used for each test compound to determine its IC50 value. Each experiment was performed twice and the average IC50 value is used herein.

Sequence of p110α/p85 (P42336 whole entry): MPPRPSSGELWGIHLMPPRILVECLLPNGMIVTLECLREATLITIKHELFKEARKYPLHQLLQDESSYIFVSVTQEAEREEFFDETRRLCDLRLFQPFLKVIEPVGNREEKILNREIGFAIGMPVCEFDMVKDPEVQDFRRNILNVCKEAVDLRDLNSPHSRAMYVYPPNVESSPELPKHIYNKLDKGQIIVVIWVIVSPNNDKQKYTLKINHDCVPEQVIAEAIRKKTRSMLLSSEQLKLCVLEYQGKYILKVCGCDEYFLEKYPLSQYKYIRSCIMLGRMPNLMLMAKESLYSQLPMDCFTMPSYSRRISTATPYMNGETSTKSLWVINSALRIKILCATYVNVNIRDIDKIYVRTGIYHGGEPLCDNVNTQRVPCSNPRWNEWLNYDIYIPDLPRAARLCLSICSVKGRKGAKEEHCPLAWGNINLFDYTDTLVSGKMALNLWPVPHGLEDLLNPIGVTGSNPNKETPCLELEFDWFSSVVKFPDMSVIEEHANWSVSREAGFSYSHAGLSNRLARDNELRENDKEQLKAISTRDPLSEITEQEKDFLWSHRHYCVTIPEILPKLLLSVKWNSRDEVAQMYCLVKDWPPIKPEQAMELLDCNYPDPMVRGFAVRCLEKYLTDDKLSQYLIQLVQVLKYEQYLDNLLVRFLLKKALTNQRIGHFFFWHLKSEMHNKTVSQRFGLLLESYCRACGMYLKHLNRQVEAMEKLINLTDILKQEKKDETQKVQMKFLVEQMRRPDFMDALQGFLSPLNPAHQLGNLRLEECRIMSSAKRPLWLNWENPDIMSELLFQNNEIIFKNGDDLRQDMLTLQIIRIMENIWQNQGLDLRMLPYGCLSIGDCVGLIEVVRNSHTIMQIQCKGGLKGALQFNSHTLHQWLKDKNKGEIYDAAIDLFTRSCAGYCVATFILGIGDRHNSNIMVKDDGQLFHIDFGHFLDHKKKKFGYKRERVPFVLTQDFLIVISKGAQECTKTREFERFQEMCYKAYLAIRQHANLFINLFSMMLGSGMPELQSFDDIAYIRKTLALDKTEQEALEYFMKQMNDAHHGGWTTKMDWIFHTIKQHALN
Sequence of p110α/p85 (P27986 whole entry partner): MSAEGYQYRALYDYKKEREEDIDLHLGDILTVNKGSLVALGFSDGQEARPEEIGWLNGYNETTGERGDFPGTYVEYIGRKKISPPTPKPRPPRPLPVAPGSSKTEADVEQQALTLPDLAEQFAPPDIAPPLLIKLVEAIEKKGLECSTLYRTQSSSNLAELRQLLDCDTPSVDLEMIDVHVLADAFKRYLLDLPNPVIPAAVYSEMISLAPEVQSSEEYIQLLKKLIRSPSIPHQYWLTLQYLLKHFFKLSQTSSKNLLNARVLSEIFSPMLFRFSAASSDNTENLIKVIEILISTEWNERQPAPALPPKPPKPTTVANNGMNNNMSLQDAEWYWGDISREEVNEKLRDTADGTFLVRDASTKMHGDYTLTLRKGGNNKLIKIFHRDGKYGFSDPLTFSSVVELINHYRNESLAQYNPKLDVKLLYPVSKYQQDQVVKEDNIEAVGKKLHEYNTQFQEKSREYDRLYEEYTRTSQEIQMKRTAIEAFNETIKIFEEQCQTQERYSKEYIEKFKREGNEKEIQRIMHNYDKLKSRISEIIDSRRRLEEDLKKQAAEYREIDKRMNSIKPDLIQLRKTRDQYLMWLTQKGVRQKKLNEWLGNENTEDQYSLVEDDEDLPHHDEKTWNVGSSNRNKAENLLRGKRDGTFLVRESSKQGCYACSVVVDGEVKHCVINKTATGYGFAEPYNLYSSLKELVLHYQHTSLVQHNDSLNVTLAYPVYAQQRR

Row | SMILES | pIC50 [1] | melting point
1 | CN(C)CCCOc1cccc2c1nc(C(F)F)n2-c1nc(OC2CCN(C(=O)CCl)CC2)nc(N2CCOCC2)n1 [Example 46, 3-{[1-[4-{[1-(chloroacetyl)-4-piperidinyl]oxy}-6-(4-morpholinyl)-1,3,5-triazin-2-yl]-2-(difluoromethyl)-1H-benzimidazol-4-yl]oxy}-N,N-dimethyl-1-propanamine] | 6.00 to 7.00 | –
2 | COc1cccc2c1nc(C(F)F)n2-c1nc(N2CCOCC2)nc(N2CC[C@@H](N(C)C(=O)CCl)C2)n1 [Example 27, 2-chloro-N-{(3R)-1-[4-[2-(difluoromethyl)-4-methoxy-1H-benzimidazol-1-yl]-6-(4-morpholinyl)-1,3,5-triazin-2-yl]pyrrolidinyl}-N-methylacetamide] | > 7.00 | 231 to 233 °C
3 | COc1cccc2c1nc(C(F)F)n2-c1nc(N2CCOCC2)nc(N(C)[C@@H]2CCN(C(=O)CCl)C2)n1 [Example 31, N-[(3R)-1-(chloroacetyl)pyrrolidinyl]-4-[2-(difluoromethyl)-4-methoxy-1H-benzimidazol-1-yl]-N-methyl-6-(4-morpholinyl)-1,3,5-triazin-2-amine] | > 7.00 | 219 to 221 °C
4 | COc1cccc2c1nc(C(F)F)n2-c1nc(N2CCOCC2)cc(N2CCN(S(=O)(=O)CCl)CC2)n1 [Example 14, 1-[4-{4-[(chloromethyl)sulfonyl]-1-piperazinyl}-6-(4-morpholinyl)-2-pyrimidinyl]-2-(difluoromethyl)-4-methoxy-1H-benzimidazole] | > 7.00 | 229 to 232 °C
5 | COc1cccc2c1nc(C(F)F)n2-c1nc(N2CCOCC2)nc(N2CCC[C@H](N(C)C(=O)CCl)C2)n1 [Example 36, 2-chloro-N-{(3S)-1-[4-[2-(difluoromethyl)-4-methoxy-1H-benzimidazol-1-yl]-6-(4-morpholinyl)-1,3,5-triazin-2-yl]piperidinyl}-N-methylacetamide] | > 7.00 | –
6 | COc1cccc2c1nc(C(F)F)n2-c1nc(N2CCOCC2)nc(N2CCC[C@@H](NC(=O)CCl)C2)n1 [Example 33] | > 7.00 | 231 to 233 °C
7 | COc1cccc2c1nc(C(F)F)n2-c1nc(N2CCOCC2)nc(N2CC[C@H](N(C)C(=O)CCl)C2)n1 [Example 28, 2-chloro-N-{(3S)-1-[4-[2-(difluoromethyl)-4-methoxy-1H-benzimidazol-1-yl]-6-(4-morpholinyl)-1,3,5-triazin-2-yl]pyrrolidinyl}-N-methylacetamide] | > 7.00 | 230 to 232 °C
8 | CN(C)CCCOc1cccc2c1nc(C(F)F)n2-c1nc(N2CCOCC2)nc(N2CCN(S(=O)(=O)CCl)CC2)n1 [Example 13] | < 6.00 | –
9 | COc1cccc2c1nc(C(F)F)n2-c1nc(NC2CN(C(=O)CCl)C2)nc(N2CCOCC2)n1 [Example 43, N-[1-(chloroacetyl)-3-azetidinyl]-4-[2-(difluoromethyl)-4-methoxy-1H-benzimidazol-1-yl]-6-(4-morpholinyl)-1,3,5-triazin-2-amine] | > 7.00 | 219 to 221 °C
10 | COc1cccc2c1nc(C(F)F)n2-c1nc(N[C@H]2CCCN(C(=O)CCl)C2)nc(N2CCOCC2)n1 [Example 38] | > 7.00 | –
11 | CN(C)CCCOc1cccc2c1nc(C(F)F)n2-c1nc(N2CCOCC2)nc(N2CCC(N(C)C(=O)CCl)CC2)n1 [Example 24, 2-chloro-N-{1-[4-{2-(difluoromethyl)-4-[3-(dimethylamino)propoxy]-1H-benzimidazol-1-yl}-6-(4-morpholinyl)-1,3,5-triazin-2-yl]-4-piperidinyl}-N-methylacetamide] | 6.00 to 7.00 | –
12 | CN(C)CCCOc1cccc2c1nc(C(F)F)n2-c1nc(N2CCOCC2)nc(N(C)C2CCN(C(=O)CCl)CC2)n1 (as salt: hydrochloride) [Example 20, N-[1-(chloroacetyl)-4-piperidinyl]-4-{2-(difluoromethyl)-4-[3-(dimethylamino)propoxy]-1H-benzimidazol-1-yl}-N-methyl-6-(4-morpholinyl)-1,3,5-triazin-2-amine] | – | 128 °C (dec.)
13 | CN(C)CCCOc1cccc2c1nc(C(F)F)n2-c1nc(N2CCOCC2)nc(N(C)C2CCN(C(=O)CCl)CC2)n1 [Example 20, N-[1-(chloroacetyl)-4-piperidinyl]-4-{2-(difluoromethyl)-4-[3-(dimethylamino)propoxy]-1H-benzimidazol-1-yl}-N-methyl-6-(4-morpholinyl)-1,3,5-triazin-2-amine] | 6.00 to 7.00 | –
14 | COc1cccc2c1nc(C(F)F)n2-c1nc(-c2ccncc2)nc(N2CCN(C(=O)CCl)CC2)n1 (as salt: hydrochloride) [Example 6, 1-[4-[4-(chloroacetyl)-1-piperazinyl]-6-(4-pyridinyl)-1,3,5-triazin-2-yl]-2-(difluoromethyl)-4-methoxy-1H-benzimidazole] | – | > 300 °C
15 | CN(C)CCCOc1cccc2c1nc(C(F)F)n2-c1nc(N2CCOCC2)nc(N2CCN(S(=O)(=O)CCl)CC2)n1 (as salt: hydrochloride) [Example 13] | – | 243 to 247 °C

Further lines, results first:

Row | pIC50 [1] | melting point | SMILES
16 | > 7.00 | 261 to 263 °C | COc1cccc2c1nc(C(F)F)n2-c1nc(N2CCOCC2)nc(N2CCN(S(=O)(=O)CCl)CC2)n1 [Example 11, 1-[4-{4-[(chloromethyl)sulfonyl]-1-piperazinyl}-6-(4-morpholinyl)-1,3,5-triazin-2-yl]-2-(difluoromethyl)-4-methoxy-1H-benzimidazole]
17 | > 7.00 | 176 to 180 °C | COc1cccc2c1nc(C(F)F)n2-c1nc(N2CCOCC2)nc(N2CCN(C(=O)COS(C)(=O)=O)CC2)n1 [Example 9, 2-{4-[4-[2-(difluoromethyl)-4-methoxy-1H-benzimidazol-1-yl]-6-(4-morpholinyl)-1,3,5-triazin-2-yl]-1-piperazinyl}-2-oxoethyl methanesulfonate]
18 | > 7.00 | – | COc1cccc2c1nc(C(F)F)n2-c1nc(N2CCOCC2)nc(N2CCN(C(=O)C(Cl)(Cl)Cl)CC2)n1 [Example 8, 2-(difluoromethyl)-1-{4-(4-morpholinyl)-6-[4-(trichloroacetyl)-1-piperazinyl]-1,3,5-triazin-2-yl}-1H-benzimidazol-4-yl methyl ether]
19 | – | 267 to 270 °C | O=C(CCl)N1CCN(c2nc(N3CCOCC3)nc(-n3c(C(F)F)nc4c(O)cccc43)n2)CC1 [Example 5, 1-[4-[4-(Chloroacetyl)-1-piperazinyl]-6-(4-morpholinyl)-1,3,5-triazin-2-yl]-2-(difluoromethyl)-1H-benzimidazol-4-ol]
20 | – | 189 to 191 °C | O=C(CCl)N1CCN(c2nc(N3CCOCC3)nc(-n3c(C(F)F)nc4ccccc43)n2)CC1 [Example 3, 1-[4-[4-(Chloroacetyl)-1-piperazinyl]-6-(4-morpholinyl)-1,3,5-triazin-2-yl]-2-(difluoromethyl)-1H-benzimidazole]
21 | > 7.00 | 208 to 211 °C | COc1cccc2c1nc(C(F)F)n2-c1nc(N[C@H]2CCN(C(=O)CCl)C2)nc(N2CCOCC2)n1 [Example 30, N-[(3S)-1-(chloroacetyl)pyrrolidinyl]-4-[2-(difluoromethyl)-4-methoxy-1H-benzimidazol-1-yl]-6-(4-morpholinyl)-1,3,5-triazin-2-amine]
22 | > 7.00 | 270 to 273 °C | COc1cccc2c1nc(C(F)F)n2-c1nc(NC2CCN(C(=O)CCl)CC2)nc(N2CCOCC2)n1 [Example 18, N-[1-(chloroacetyl)-4-piperidinyl]-4-[2-(difluoromethyl)-4-methoxy-1H-benzimidazol-1-yl]-6-(4-morpholinyl)-1,3,5-triazin-2-amine]
23 | – | 275 to 278 °C | COc1cccc2c1nc(C(F)F)n2-c1nc(N2CCOCC2)nc(N2CCN(C(=O)C(Cl)Cl)CC2)n1 [Example 7, 1-[4-[4-(dichloroacetyl)-1-piperazinyl]-6-(4-morpholinyl)-1,3,5-triazin-2-yl]-2-(difluoromethyl)-4-methoxy-1H-benzimidazole]
24 | – | 242 to 245 °C | O=C(CCl)N1CCN(c2nc(-c3cccc(O)c3)nc(N3CCOCC3)n2)CC1 [Example 1, 3-[4-[4-(chloroacetyl)-1-piperazinyl]-6-(4-morpholinyl)-1,3,5-triazin-2-yl]phenol]
25 | > 7.00 | – | COc1cccc2c1nc(C(F)F)n2-c1nc(N2CCOCC2)nc(N2CCN(C(=O)C(C)Cl)CC2)n1 (stereo not shown) [Example 10, 1-[4-[4-(2-chloropropanoyl)-1-piperazinyl]-6-(4-morpholinyl)-1,3,5-triazin-2-yl]-2-(difluoromethyl)-4-methoxy-1H-benzimidazole]
26 | – | 217 to 219 °C | CCOc1cccc2c1nc(C(F)F)n2-c1nc(N2CCOCC2)nc(N2CCN(C(=O)CCl)CC2)n1 [Example 2, 1-[4-[4-(chloroacetyl)-1-piperazinyl]-6-(4-morpholinyl)-1,3,5-triazin-2-yl]-2-(difluoromethyl)-4-ethoxy-1H-benzimidazole]
27 | > 7.00 | – | COc1cccc2c1nc(C(F)F)n2-c1nc(N2CCOCC2)nc(N2CC[C@H](NC(=O)CCl)C2)n1 [Example 26, 2-chloro-N-{(3S)-1-[4-[2-(difluoromethyl)-4-methoxy-1H-benzimidazol-1-yl]-6-(4-morpholinyl)-1,3,5-triazin-2-yl]pyrrolidinyl}acetamide]
